According to ChEMBL document CHEMBL4396891, “Recent update on anti-dengue drug discovery” (Eur J Med Chem, 2019):
Converted amounts (≈) assume the structure as drawn.

Assays:
dengue virus type 2 [1] = assay: Antiviral activity against DENV2; type: functional, organism-based
[2] = target: Genome polyprotein (dengue virus type 2) (UniProt P29990); assay: Inhibition of DENV2 NS2B-NS3 serine protease
dengue virus type 1 = assay: Antiviral activity against DENV1 infected in African green monkey Vero cells assessed as reduction in viral replication after 4 days by qRT-PCR analysis; type: functional, organism-based; details: 96 h
Genome polyprotein [3] = target: T1, Genome polyprotein (dengue virus type 2, UniProt P29990); assay: Inhibition of His-tagged DENV2 NS2B-NS3 serine protease expressed in Escherichia coli BL21 using Boc-Gly-Arg-Arg-7-amino-4-methylcoumarin as substrate measured after 10 mins by fluorometric assay
Nonstructural protein 5 = Nonstructural protein 5 (Dengue virus, UniProt V5TFZ2); assay: Inhibition of dengue virus NS5 RNA dependent RNA polymerase
Sequence of Nonstructural protein 5 (V5TFZ2 whole entry): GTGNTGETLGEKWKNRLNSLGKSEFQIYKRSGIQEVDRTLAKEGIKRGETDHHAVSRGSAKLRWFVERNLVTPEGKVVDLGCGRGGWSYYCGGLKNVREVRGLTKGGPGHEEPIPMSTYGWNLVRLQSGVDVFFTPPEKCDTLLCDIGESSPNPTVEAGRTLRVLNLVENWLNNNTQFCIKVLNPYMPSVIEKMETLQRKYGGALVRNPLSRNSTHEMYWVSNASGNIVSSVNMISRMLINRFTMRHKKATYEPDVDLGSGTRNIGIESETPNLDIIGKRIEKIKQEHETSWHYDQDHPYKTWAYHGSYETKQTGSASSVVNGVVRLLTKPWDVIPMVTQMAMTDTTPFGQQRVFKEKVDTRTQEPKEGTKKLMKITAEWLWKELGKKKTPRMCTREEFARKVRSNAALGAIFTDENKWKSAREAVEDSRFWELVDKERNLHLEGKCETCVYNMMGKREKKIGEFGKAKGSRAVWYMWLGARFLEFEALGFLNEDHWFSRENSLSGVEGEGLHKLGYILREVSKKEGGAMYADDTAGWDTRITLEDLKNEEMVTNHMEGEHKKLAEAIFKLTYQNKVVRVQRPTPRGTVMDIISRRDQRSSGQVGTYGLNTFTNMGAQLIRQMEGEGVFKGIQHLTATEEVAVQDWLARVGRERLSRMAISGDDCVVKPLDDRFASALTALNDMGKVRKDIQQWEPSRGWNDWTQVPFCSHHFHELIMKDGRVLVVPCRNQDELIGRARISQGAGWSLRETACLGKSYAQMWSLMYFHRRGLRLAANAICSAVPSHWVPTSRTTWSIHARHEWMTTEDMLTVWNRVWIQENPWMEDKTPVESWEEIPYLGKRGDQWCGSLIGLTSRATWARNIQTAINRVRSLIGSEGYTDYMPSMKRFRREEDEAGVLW

Dengue virus = assay: Antiviral activity against dengue virus; type: functional, organism-based
dengue virus type 2 [4] = assay: Antiviral activity against DENV2 infected in human Huh-7 cells; type: functional, organism-based
Genome polyprotein [5] = target: T1, Genome polyprotein; assay: Inhibition of DENV2 NS2B-NS3 serine protease using Bz-Nle-Lys-Arg-Arg-AMC as substrate after 15 mins by fluorescence assay
dengue virus type 2 [6] = assay: Antiviral activity against DENV2 infected in BHK-21 cells assessed as viral replication; type: functional, organism-based
Genome polyprotein [7] = target: T1, Genome polyprotein; assay: Inhibition of DENV2 NS2B-NS3 serine protease expressed using Benzoyl-Nle-Lys-Arg-Arg-AMC as substrate measured preincubated for 3 mins followed by substrate addition by fluorescence assay
dengue virus type 2 [8] = assay: Antiviral activity against DENV2 infected in BHK-21 cells by MTTR assay; type: functional, organism-based

For CCCCC1C(C(=O)CC)C(c2ccccc2)CCN1C(=O)OC(C)(C)C (stereo not given), the EC50 (dengue virus type 2 [1]) was 3.2 µM and the INH [2] was 214 µM.

O=C(Nc1cccs1)c1ccccc1Sc1ccc([N+](=O)[O-])cc1 showed an EC50 (dengue virus type 1) of 3.5 µM and an IC50 (Genome polyprotein [3]) of 98 µM.

C[C@@H]1O[C@@H](Oc2c(-c3ccc(O)c(O)c3)oc3cc(O)cc(O)c3c2=O)[C@H](O)[C@H](O)[C@H]1O [QUERCITRIN] showed an IC50 (Nonstructural protein 5) of 1.7 to 2.1 µM.

Molecule CC(C)=CCC/C(C)=C/C=O [CITRAL] has an IC50 (dengue virus type 2 [1]) of 31 µM.

Molecule O=C1N[C@@H](Cc2ccccc2)C(=O)N2C[C@H](O)C[C@@H]12 has an EC50 (Dengue virus) of 11.2 to 21.2 µM.

For O=c1c2cc(O)c(O)cc2oc2cc(O)c([C@@H]3O[C@H](CO)[C@@H](O)[C@H](O)[C@H]3O/C=C/c3ccc(O)c(O)c3)c(O)c12, the EC50 (dengue virus type 2 [4]) was 4.1 µg/mL (≈ 7.37 µM).

CCc1ccc(NS(=O)(=O)c2ccc(N3C(=O)c4ccccc4C3=O)cc2)cc1 gave an IC50 (Genome polyprotein [5]) of 48.2 µM.

Molecule CC[C@](C)(O)CCCCC[C@H]1C=CC(=O)O1 has an EC50 (Dengue virus) of 11.2 to 21.2 µM.

With CC(C)C[C@@H]1NC(=O)[C@@H]2CCCN2C1=O the EC50 (Dengue virus) was 11.2 to 21.2 µM.

Work on CC(=O)O[C@@H]1C(=O)C=C2CCN3Cc4cc5c(cc4[C@H]1[C@@H]23)OCO5 yielded an EC50 (Dengue virus) of 0.4 to 1.8 µM.

For CC(C)CC(=O)c1c(O)c2c(c3c(-c4ccccc4)cc(=O)oc13)OC(C)(C)C=C2 [ISOMAMMEIGIN], the EC50 (dengue virus type 2 [1]) was 2.6 to 10.2 µM.

Work on Cc1ccc(C(=O)c2cc(O)c(O)c([N+](=O)[O-])c2)cc1 [TOLCAPONE] yielded an EC50 (dengue virus type 2 [6]) of 2.29 µM and an IC50 (Genome polyprotein [7]) of 0.64 to 1.15 µM.

Molecule O=C1C=C2CCN3Cc4cc5c(cc4[C@H]([C@@H]1O)[C@@H]23)OCO5 has an EC50 (Dengue virus) of 0.4 to 1.8 µM.

O=C(O)c1cc2sc(NC(=O)c3ccccc3Sc3ccc(C(F)(F)F)cc3)nc2cc1O showed an IC50 (Genome polyprotein [3]) of 66 µM.

CC(=O)O[C@H]1[C@H]2c3cc4c(cc3CN3CCC(=C[C@@H]1O)[C@H]23)OCO4 gave an EC50 (Dengue virus) of 0.4 to 1.8 µM.

With C=C1CC/C=C(\C)CC[C@@H]2[C@@H]1CC2(C)C [BETA-CARYOPHYLLENE] the IC50 (dengue virus type 2 [1]) was 22 µM.

For O=c1c2cc(O)c(O)cc2oc2cc(O)c([C@@H]3O[C@H](CO)[C@@H](O)[C@H](O)[C@H]3O/C=C/c3ccccc3)c(O)c12, the EC50 (dengue virus type 2 [4]) was 3.5 µg/mL (≈ 6.67 µM).

CC1(C)O[C@H]1[C@H]1C[C@@H]([C@H]2CC[C@]3(C)C4=CC[C@H]5C(C)(C)C(=O)CC[C@]5(C)[C@H]4CC[C@@]23C)[C@H](O)O1 gave an EC50 (dengue virus type 2 [8]) of 12 µM.

CC[C@H]1C[C@H]2C[N@]3CCc4c([nH]c5ccc(OC)cc45)[C@](C(=O)OC)(C2)[C@H]13 gave an EC50 (dengue virus type 2 [1]) of 2.6 to 10.2 µM.

O=C1c2ccccc2C(=O)N1c1ccc(S(=O)(=O)Nc2cccc3ccccc23)cc1 showed an IC50 (Genome polyprotein [5]) of 122 µM.

Molecule C=C(C)[C@@H]1CC[C@]2(C(=O)O)CC[C@]3(C)[C@H](CC[C@@H]4[C@@]5(C)CC[C@H](O)C(C)(C)[C@@H]5CC[C@]43C)[C@@H]12 [BETULINIC ACID] has an IC50 (Nonstructural protein 5) of 1.7 to 2.1 µM.

For Cc1ccc(C2=NC(=O)/C(=C/c3cc(O)c(O)c(Br)c3)S2)cc1, the EC50 (dengue virus type 2 [6]) was 6.9 µM and the IC50 (Genome polyprotein [7]) was 2.94 to 4.06 µM.

C/C=C(\C)C(=O)O[C@@H]1CC[C@]2(C)[C@H]3CC[C@@]4(C)[C@@H]([C@@H]5C[C@H]([C@@H]6OC6(C)C)O[C@H]5O)CC[C@]4(C)C3=CC[C@H]2C1(C)C gave an EC50 (dengue virus type 2 [8]) of 3 µM.

CC[C@@H](c1cc(OC)c(OC)cc1OC)[C@H](C)[C@@H](/C(C)=C/c1cc(OC)c(OC)cc1OC)c1cc(OC)c(OC)cc1OC showed an EC50 (Dengue virus) of 3.9 µM.

Work on O[C@H]1[C@H]2c3cc4c(cc3CN3CCC(=C[C@@H]1O)[C@H]23)OCO4 [LYCORINE] yielded an EC50 (Dengue virus) of 0.4 to 1.8 µM.

For CC(C)C[C@@H]1NC(=O)[C@@H]2C[C@@H](O)CN2C1=O, the EC50 (Dengue virus) was 11.2 to 21.2 µM.

With Cc1c(O)cccc1C(=O)N[C@@H](CSc1ccccc1)[C@H](O)CN1C[C@H]2CCCC[C@H]2C[C@H]1C(=O)NC(C)(C)C [NELFINAVIR] the IC50 (dengue virus type 2 [1]) was 3.5 µM.

For CCCCC1C(C(=O)N(C)OC)C(c2ccccc2)CCN1C(=O)OC(C)(C)C (stereo not given), the EC50 (dengue virus type 2 [1]) was 2.4 µM and the INH [2] was 257 µM.

CCCc1cc(=O)oc2c(C(=O)CC(C)C)c(O)c(CC=C(C)C)c(O)c12 was tested, and the EC50 (dengue virus type 2 [1]) was 2.6 to 10.2 µM.

CN1CCN(CCCN2c3ccccc3Sc3ccc(Cl)cc32)CC1 [PROCHLORPERAZINE] gave an EC50 (dengue virus type 2 [1]) of 0.088 µM.
